Here are results for 47 molecules from PubChem BioAssay AID1508612.

Usually Papp stands for a coefficient for how fast a substance crosses the barrier. High values mean ready permeation, low ones poor permeation.

This data set is described as follows: passive permeability, PAMPA, ADME assay (AID 1508612). Conditions: pH 7.4, 30.0 min, 50.0 µM. (In general: In PAMPA a lipid-coated filter parts donor from acceptor wells.)
`CC[C@H](Nc1ncnc2nc[nH]c12)c1nc2cccc(F)c2c(=O)n1-c1ccccc1` yielded a Papp of 169 ×10⁻⁶ cm/s.
The result for `COc1ccccc1N1CCN(c2ccc3cc(S(=O)(=O)N4CCCCC4)ccc3n2)CC1` reads > 1000 ×10⁻⁶ cm/s.
The result for `CCc1ccc2oc(NC3=NC(c4[nH]ncc4Cl)C4=C(CCCC4=O)N3)nc2c1` (configuration not stated) reads 916 ×10⁻⁶ cm/s; that for `CC(O)(C#Cc1ccc2c(c1)N(c1nc(N)ncc1Cl)CC2)c1nccs1` (configuration not stated), 516 ×10⁻⁶ cm/s.
The result for `CN(C)CC(=O)NC1CCCc2c1cnn2-c1ccc(F)cc1F` (configuration not stated) reads 412 ×10⁻⁶ cm/s; that for `CC(C)NC(=O)N1C[C@@H]2C[C@H](C1)c1ccc(-c3cccc(C(F)(F)F)c3)c(=O)n1C2`, 189 ×10⁻⁶ cm/s.
`COc1ccc(-c2cc3nccn3c(Nc3ncccc3C(N)=O)n2)cc1OC` gave a Papp of 26.4 ×10⁻⁶ cm/s.
With `O=C(c1ccc2c(c1)ncn2-c1ccc(C(F)(F)F)cc1)N1CCCCC1` the figure was > 1000 ×10⁻⁶ cm/s; with `N#CC1CCN(c2nc(-c3ccc(Br)cc3)cs2)CC1`, 671 ×10⁻⁶ cm/s; with `COc1ccccc1N1CCN(CCN(C(=O)c2ccc(F)cc2)c2ccccn2)CC1`, > 1000 ×10⁻⁶ cm/s.
The result for `CC1CN(c2ccc(Nc3nc(-c4ccncc4)nc4ccccc34)cc2F)CC(C)O1` (configuration not stated) reads > 1000 ×10⁻⁶ cm/s; that for `CN(C(=O)c1cn2c(-c3ccc(C(F)(F)F)cc3)cnc2cn1)c1ccc(C#N)cc1`, 874 ×10⁻⁶ cm/s.
The result for `CCOC(=O)N1CCN(C(=O)Cn2sc3nc(C)cc(C)c3c2=O)CC1` reads 47.1 ×10⁻⁶ cm/s; that for `COc1cccc(S(=O)(=O)Nc2cnccc2C(=O)Nc2nc(-c3ccccc3)cs2)c1`, 696 ×10⁻⁶ cm/s; that for `CC(C)c1ccccc1-c1ncc(F)c(NCc2ccc(-c3ccn[nH]3)cc2)n1`, > 1000 ×10⁻⁶ cm/s.
`CCOC(=O)c1ccc(N2C(=O)c3[nH]nc(-c4ccc(OC)cc4)c3C2c2ccc(C)cc2)cc1` (configuration not stated) registered a Papp of 17.7 ×10⁻⁶ cm/s.
With `CCCc1c(CC)c(=N)c2ccccc2n1C` the figure was 6.67 ×10⁻⁶ cm/s; with `COc1ccc(-n2nc(C3CCCN(C(=O)C4CC4)C3)[nH]c2=O)cc1` (configuration not stated), 113 ×10⁻⁶ cm/s.
Regarding `COc1ccccc1NC(=O)C1=C(C)Nc2c(C(=O)Nc3ccc(F)cc3)cnn2C1c1ccc(Cl)cc1` (configuration not stated), the Papp came to 302 ×10⁻⁶ cm/s.
On to `O=C(Nc1ncnc2sc3c(c12)CCCCC3)c1ccco1`, for which the Papp is > 1000 ×10⁻⁶ cm/s.
The molecule `COc1ccc2c(c1)N(C[C@H](C)CN(C)C)c1ccccc1S2` came in with a Papp of 902 ×10⁻⁶ cm/s.
`O=C(NCCCc1ccccc1)C1CCN(c2nc(-c3ccc(Br)cc3)cs2)CC1` came in with a Papp of 18 ×10⁻⁶ cm/s.
Molecule `O=C(Nc1nc2cc(C(F)(F)F)cc(NC3CC3)n2n1)c1cccnc1` displayed a Papp of 197 ×10⁻⁶ cm/s.
Take `O=C(Nc1ccc(S(=O)(=O)Nc2nccs2)cc1)c1ccnc(-c2ccccc2)c1`: the Papp was < 1 ×10⁻⁶ cm/s.
The result for `c1ccc(C2=Nn3c(nnc3-c3ccncc3)SC2)cc1` reads 195 ×10⁻⁶ cm/s; that for `Cn1nnnc1Sc1ncnc2scc(Br)c12`, 177 ×10⁻⁶ cm/s.
With `Cn1c(C(=O)NCCc2ccccn2)nc2nc(-c3ccccc3)c(Cl)cc21` the figure was > 1000 ×10⁻⁶ cm/s.
In turn, `S=c1[nH]c2ccccc2n1CCc1ccccc1` displayed a Papp of 126 ×10⁻⁶ cm/s.
The result for `NC(=O)C1CCN(c2nc(-c3ccccc3N)cs2)CC1` reads 136 ×10⁻⁶ cm/s.
With `CCOc1ccc(CCN(C)C(=O)c2cc3sccc3n2Cc2ccccc2)cc1OCC`, the Papp is > 1000 ×10⁻⁶ cm/s.
With `O=C(NC1CCCCC1)N1Cc2[nH]cnc2C[C@H]1c1nc(-c2cccc([N+](=O)[O-])c2)no1` the figure was 202 ×10⁻⁶ cm/s; with `Oc1ccc(-c2nc(C3CC3)nc3c2CCN(CC2CCCCC2)CC3)cc1`, > 1000 ×10⁻⁶ cm/s.
In turn, `NC(=O)C1CCN(c2ncnc(-c3ccc4c(c3)OCCCO4)n2)CC1` showed a Papp of 254 ×10⁻⁶ cm/s.
With `CC(C)c1ccccc1-c1ncc(F)c(NCC2CCN(c3cnccn3)C2)n1` (configuration not stated) the figure was > 1000 ×10⁻⁶ cm/s; with `CC(C)(C)c1ccc(C(=O)Nc2cn3cc(-n4ccnc4)ccc3n2)cc1`, 952 ×10⁻⁶ cm/s.
The result for `Cc1ccnc(NC(=S)N2CCN(c3ccc(Cl)c(Cl)c3)CC2)c1` reads > 1000 ×10⁻⁶ cm/s; that for `CC(C)c1nc2oc3c(NCCN(C)C)ncnc3c2c2c1COC(C)(C)C2`, > 1000 ×10⁻⁶ cm/s; that for `Cc1ccc(S(=O)(=O)Nc2cnccc2C(=O)Nc2ccc(N3CCOCC3)cc2)cc1`, 53.3 ×10⁻⁶ cm/s.
Molecule `CCOC(=O)C1CCN(C(=O)C(C)(C)NC(=O)Nc2ccc(-c3ccccc3)cc2)CC1` gave a Papp of 486 ×10⁻⁶ cm/s.
With `O=C(O)CCNc1cc(N2CCc3ccccc3CC2)nc(-c2cccnc2)n1` the figure was 56.4 ×10⁻⁶ cm/s; with `CS(=O)(=O)Nc1cccc(-c2nccc(-n3ccnc3)n2)c1`, 355 ×10⁻⁶ cm/s.
With `CCCCc1ccc(NC(=O)c2ccc3c(c2)N(S(C)(=O)=O)CC3)cc1`, the Papp was 706 ×10⁻⁶ cm/s.
With `O=C(Cc1ccc(Cl)cc1)Nc1cnccc1C(=O)O` the figure was 7 ×10⁻⁶ cm/s; with `Cc1cc(NS(=O)(=O)c2ccc(NC(=O)Cc3ccc(Cl)c(Cl)c3)cc2)n(C)n1`, 31.7 ×10⁻⁶ cm/s.
Regarding `CCc1ccc(NC(=O)[C@H](Cc2c[nH]c3ccccc23)NC(=O)[C@@H]2Cc3ccccc3CN2)cc1`, the Papp worked out at 111 ×10⁻⁶ cm/s.
With `Fc1ccc(Cl)cc1-c1nc(Nc2ccncc2)c2nccnc2n1` the figure was > 1000 ×10⁻⁶ cm/s; with `COc1cccc(CNc2ccc(S(=O)(=O)Nc3ccccn3)cc2)c1O`, 586 ×10⁻⁶ cm/s.
